This note sets out measurements from ChEMBL document CHEMBL1142280, “Discovery of new small molecules that influence neuroblast cell migration from the subventricular zone” (2008).

The species named for test [1] is Mus musculus. Description: Inhibition of mouse neuroblast cell migration from subventricular zone tissue explants at 67 uM after 48 hrs relative to control. Type of test: functional.
A short description of test [2]: Inhibition of mouse neuroblast cell migration from subventricular zone tissue explants at 250 uM after 48 hrs relative to control.
The species entered for test [3] is Mus musculus. Description: (§1) Inhibition of mouse neuroblast cell migration from subventricular zone tissue explants at 63 uM after 48 hrs relative to control. Type of test: functional.
The nature of test [4]: as §1. Type of test: functional.
The nature of test [5]: Inhibition of mouse neuroblast cell migration from subventricular zone tissue explants at 139 uM after 48 hrs relative to control. Type of test: functional.
For test [6], the species on record is Mus musculus. Briefly: Inhibition of mouse neuroblast cell migration from subventricular zone tissue explants at 13.9 uM after 48 hrs relative to control. It counts as functional.
The nature of test [7]: Inhibition of mouse neuroblast cell migration from subventricular zone tissue explants at 123 uM after 48 hrs relative to control. Type of test: functional.
The species entered for test [8] is Mus musculus. Description: Inhibition of mouse neuroblast cell migration from subventricular zone tissue explants at 12.3 uM after 48 hrs relative to control. It counts as functional.
Test [9] can be described thus: Inhibition of mouse neuroblast cell migration from subventricular zone tissue explants at 223 uM after 48 hrs relative to control. It counts as functional.
A short description of test [10]: Inhibition of mouse neuroblast cell migration from subventricular zone tissue explants at 224 uM after 48 hrs relative to control. Type of test: functional.
For test [11], the species on record is Mus musculus. Description: Inhibition of mouse neuroblast cell migration from subventricular zone tissue explants at 22 uM after 48 hrs relative to control. It counts as functional.
Test [12] is filed under the species Mus musculus. Briefly: Inhibition of mouse neuroblast cell migration from subventricular zone tissue explants at 100 uM after 48 hrs relative to control. Type of test: functional.
The species entered for test [13] is Mus musculus. Description: Reversal of inhibition of mouse neuroblast cell migration from subventricular zone tissue explants in presence of PR21. Type of test: functional.
Test [14] is described as follows: Inhibition of mouse neuroblast cell migration from subventricular zone tissue explants at 68 uM after 48 hrs relative to control. It counts as functional.
A short description of test [15]: Inhibition of mouse neuroblast cell migration from subventricular zone tissue explants at 34 uM after 48 hrs relative to control. It counts as functional.
The species named for test [16] is Mus musculus. Briefly: Inhibition of mouse neuroblast cell migration from subventricular zone tissue explants at 6.8 uM after 48 hrs relative to control. It counts as functional.
The species entered for test [17] is Mus musculus. Description: Inhibition of PR21-stimulated mouse neuroblast cell migration from subventricular zone tissue explants after 24 hrs. It counts as functional.
The species named for test [18] is Mus musculus. Description: Inhibition of mouse neuroblast cell migration from subventricular zone tissue explants after 24 hrs. Type of test: functional.
Test [19] can be described thus: Inhibition of mouse neuroblast cell migration from subventricular zone tissue explants at 154 uM after 48 hrs relative to control. Type of test: functional.

Each structure is given as a SMILES string. The source made the active and inactive calls. The calls are words filed in the database; no cut-off is given here.

Regarding `O=C(c1ccc(C(=O)N2CCCNCCNCCCNCC2)cc1)N1CCCNCCNCCCNCC1`, the outcome in the test filed under Mus musculus [1] was inactive.
In general, inhibition refers to how much of the control response was suppressed. In turn, `C1CNCCNCCCNCCNC1` gave an inhibition at 250 µM in [2] of 20%.
As to `c1ccc(CN2CCCNCCNCCCNCC2)c(CN2CCCNCCNCCCNCC2)c1`, the result in the test filed under Mus musculus [3] was inactive.
In test [4], `c1cc(CN2CCCNCCNCCCNCC2)cc(CN2CCCNCCNCCCNCC2)c1` returned an inhibition at 63 µM of 10%.
With `O=C(NCCSSCCNC(=O)c1ccccc1)c1ccccc1`, the inhibition at 139 µM in test [5] is 100%. Also, in the test filed under Mus musculus [6], the outcome was inactive.
On to `c1ccc(CNCCSSCCNCc2ccccc2)cc1`, for which the inhibition at 123 µM in [7] was 100%. The result in the test filed under Mus musculus [8] was inactive.
`C1CNCCNCCCN(CC2CCC(CN3CCCNCCNCCCNCC3)CC2)CCNC1` (configuration not stated): the outcome in the test listed under Mus musculus [3] was inactive.
Regarding `NCCSSCCN` [CYSTAMINE], the inhibition at 223 µM in test [9] came to 33%.
With `C1CNCCNCCNCCN1`, the inhibition at 224 µM in test [10] worked out at 19%. In addition, the outcome in the test listed under Mus musculus [11] was inactive.
For `CC(CNCCCCCN)SSC(C)CNCCCCCN` (configuration not stated), the outcome in the test filed under Mus musculus [12] was inactive.
For `c1cc(CN2CCCNCCNCCCNCC2)ccc1CN1CCCNCCNCCCNCC1`, the outcome in the test listed under Mus musculus [3] was inactive.
Take `COc1ccccc1CNCCCCCCNCCSSCCNCCCCCCNCc1ccccc1OC` [BENEXTRAMINE]: the outcome in the test listed under Mus musculus [13], in the test filed under Mus musculus [17] and in the test listed under Mus musculus [18] was Active. Further, in [14], 68 µM produced 100% inhibition. Moreover, the inhibition at 34 µM in test [15] turned out to be 45%. For the same molecule, the result in the test filed under Mus musculus [16] was inactive.
On to `C1CNCCNCCCN(CCCCN2CCCNCCNCCCNCC2)CCNC1`, for which, in the test listed under Mus musculus [1], the result was inactive.
The molecule `O=C(NCCCCCCNC(=O)c1ccccc1)c1ccccc1` displayed an inhibition at 154 µM in test [19] of 50%.
